Measured values reported in PubChem BioAssay AID651862 (Vanderbilt Specialized Chemistry Center, 2012).
pEC50: −log10 of the molar value. Activity calls are given as the source filed them.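 How the source made its calls: active means tubulin-normalized E-cadherin at least double the DMSO level by western blot, or significantly raised by in-cell western; inactive means the rest.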

System: SW620/H520 cells, E-cadherin In-Cell Western
Test: E-cadherin expression restoration, SW620 and H520 cells, In-Cell Western (AID 651862)

| Structure (SMILES) | pEC50 | EC50 |
| --- | --- | --- |
| O=C(NCCCNCc1ccc(O)c(O)c1)c1cc(-c2ccccc2)on1 | 5.34 | – |
| O=C(NCCNC(=O)c1nccs1)c1cc(-c2ccccc2)on1 | 5.42 | – |
| O=C(NCCCNC(=O)c1ccc[nH]c1=O)c1cc(-c2ccccc2)on1 | 5.65 | – |
| N#Cc1ccc(NCCCNC(=O)c2cc(-c3ccccc3)on2)nc1 | 5.50 | – |
| [N-]=[N+]=Nc1nccc(NCCCNC(=O)c2cc(-c3ccccc3)on2)n1 | 5.59 | – |
| O=C(NCCCNCc1cnoc1)c1cc(-c2ccccc2)on1 | – | 12 µM (inactive) |
